Each structure is given as a SMILES string. Calls of active or inactive are those of the source. The rule behind the calls is not given here.

Results on 5 molecules are retold here after ChEMBL document CHEMBL4219158 (Bioorg Med Chem Lett, 2018).

Assay [1] addresses T1, 5-hydroxytryptamine receptor 2A (Homo sapiens, UniProt P28223). Kind of assay: Antagonist activity at human recombinant 5-HT2A receptor expressed in CHOK1 cells assessed as inhibition of serotonin-induced calcium release preincubated for 15 mins followed by 5-HT addition measured every 1.7 secs for 60 secs by calcium 4 dye-based FLIPR assay. The format is functional, cell-based.

The target in assay [2] is T1, 5-hydroxytryptamine receptor 2A. Kind of assay: Agonist activity at human recombinant 5-HT2A receptor expressed in CHOK1 cells assessed as induction of calcium release incubated for 15 mins measured every 1.7 secs for 60 secs by calcium 4 dye-based FLIPR assay. The format is functional, cell-based.

T1 sequence (P28223 whole entry): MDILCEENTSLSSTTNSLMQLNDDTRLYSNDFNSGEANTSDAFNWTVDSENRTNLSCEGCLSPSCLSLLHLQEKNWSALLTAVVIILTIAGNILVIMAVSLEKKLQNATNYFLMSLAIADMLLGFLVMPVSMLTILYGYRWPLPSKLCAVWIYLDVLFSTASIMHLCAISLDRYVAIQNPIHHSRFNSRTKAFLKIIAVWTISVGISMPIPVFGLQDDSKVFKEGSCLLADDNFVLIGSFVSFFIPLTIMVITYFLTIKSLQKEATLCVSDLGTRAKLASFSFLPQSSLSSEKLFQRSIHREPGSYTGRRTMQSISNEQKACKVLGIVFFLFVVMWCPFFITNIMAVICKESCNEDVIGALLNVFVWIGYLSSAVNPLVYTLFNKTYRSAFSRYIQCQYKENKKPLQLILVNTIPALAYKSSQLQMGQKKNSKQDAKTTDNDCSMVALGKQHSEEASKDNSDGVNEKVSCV

As for `COc1c(OCCOCCOCCOCCOCCOc2cccc(C(=O)C3CCN(CCc4ccc(F)cc4)CC3)c2OC)cccc1C(=O)C1CCN(CCc2ccc(F)cc2)CC1`, the IC50 in assay [1] was determined as 29.5 nM.

`COc1c(OCCOCCOc2cn(CCOCCOc3cccc([C@H](O)C4CCN(CCc5ccc(F)cc5)CC4)c3OC)nn2)cccc1[C@H](O)C1CCN(CCc2ccc(F)cc2)CC1`: the result in assay [2] was inactive. For the same molecule, in assay [1], the IC50 came out at 36.5 nM and the inhibition result was “Dose-dependent effect”.

In the case of `C#CCOCCOCCOc1cccc([C@H](O)C2CCN(CCc3ccc(F)cc3)CC2)c1OC`, in assay [2], the outcome was inactive. Also, in assay [1], the IC50 amounted to 56.6 nM and the inhibition result is “Dose-dependent effect”.

In the case of `COc1c(OCCOCCN=[N+]=[N-])cccc1[C@H](O)C1CCN(CCc2ccc(F)cc2)CC1`, the result in assay [2] was inactive. In assay [1], the IC50 was 46.7 nM and the inhibition result was “Dose-dependent effect”.

As to `COc1c(OCCOCCOCCOCCOCCOCCOc2cccc(C(=O)C3CCN(CCc4ccc(F)cc4)CC3)c2OC)cccc1C(=O)C1CCN(CCc2ccc(F)cc2)CC1`, the IC50 in assay [1] worked out at 39.8 nM.

The IC50 is the concentration that inhibits the measured activity by half.
